# What was measured:
# Assay in all cases: relative viability (nuclei count vs DMSO), 5 days (fraction); higher = more cells survive
# Trametinib + Olaparib = compound: CC(=O)Nc1cccc(-n2c(=O)n(C3CC3)c(=O)c3c(Nc4ccc(I)cc4F)n(C)c(=O)c(C)c32)c1 [Trametinib] + O=C(c1cc(Cc2n[nH]c(=O)c3ccccc23)ccc1F)N1CCN(C(=O)C2CC2)CC1 [Olaparib] (partner 8 µM)
# Method in brief: (§1)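 Lung cancer cell lines were pin-tool dosed in 1536-well plates on the day after seeding, with either a lone drug or a fixed anchor-drug dose plus five library-drug doses (not always all listed) in √10 steps. Nuclei were counted on 4× images after 5 days. Relative viability is the ratio of treated-well to vehicle-well nuclei counts, with each value a median of duplicate plates.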
# Trametinib + OSI-027 = compound: CC(=O)Nc1cccc(-n2c(=O)n(C3CC3)c(=O)c3c(Nc4ccc(I)cc4F)n(C)c(=O)c(C)c32)c1 [Trametinib] + COc1cccc2cc(-c3nc([C@H]4CC[C@H](C(=O)O)CC4)n4ncnc(N)c34)[nH]c12 [OSI-027] (partner 0.5 µM)
# Method in brief: as §1
# Trametinib + Linsitinib = compound: CC(=O)Nc1cccc(-n2c(=O)n(C3CC3)c(=O)c3c(Nc4ccc(I)cc4F)n(C)c(=O)c(C)c32)c1 [Trametinib] + C[C@]1(O)C[C@@H](c2nc(-c3ccc4ccc(-c5ccccc5)nc4c3)c3c(N)nccn32)C1 [Linsitinib] (partner 1 µM)
# Method in brief: as §1
# [1] = compound: CN1C=C(C2=CC=CC=C21)/C=C\3/C4=C(C=CC=N4)NC3=O + Cc1nc(NC(=O)N2CCC[C@H]2C(N)=O)sc1-c1ccnc(C(C)(C)C(F)(F)F)c1 [Alpelisib] (partner 2 µM)
# Method in brief: as §1
Cell Line,relative viability (Trametinib + Olaparib; first compound 0.0025 µM),relative viability (Trametinib + Olaparib; first compound 0.007906 µM),relative viability (Trametinib + Olaparib; first compound 0.025 µM),relative viability (Trametinib + Olaparib; first compound 0.07906 µM),relative viability (Trametinib + Olaparib; first compound 0.25 µM),relative viability (Trametinib + OSI-027; first compound 0.0025 µM),relative viability (Trametinib + OSI-027; first compound 0.007906 µM),relative viability (Trametinib + OSI-027; first compound 0.025 µM),relative viability (Trametinib + OSI-027; first compound 0.07906 µM),relative viability (Trametinib + OSI-027; first compound 0.25 µM),relative viability (Trametinib + Linsitinib; first compound 0.0025 µM),relative viability (Trametinib + Linsitinib; first compound 0.007906 µM),relative viability (Trametinib + Linsitinib; first compound 0.025 µM),relative viability (Trametinib + Linsitinib; first compound 0.07906 µM),relative viability (Trametinib + Linsitinib; first compound 0.25 µM),relative viability ([1]; first compound 0.02 µM),relative viability ([1]; first compound 0.06325 µM),relative viability ([1]; first compound 0.2 µM),relative viability ([1]; first compound 0.6325 µM),relative viability ([1]; first compound 2 µM)
LU99A,0.292,0.277,0.261,0.263,0.247,0.301,0.294,0.287,0.326,0.297,0.593,0.522,0.441,0.47,0.291,0.479,0.487,0.555,0.5,0.504
LXF-289,1.01,0.906,0.803,0.756,0.665,0.766,0.656,0.452,0.453,0.243,0.878,0.818,0.698,0.628,0.563,1.09,1.06,1.12,1.02,1.1
NCI-H23,0.287,0.269,0.269,0.239,0.147,0.588,0.429,0.268,0.374,0.158,0.438,0.356,0.277,0.313,0.226,0.628,0.522,,0.602,0.689
NCI-H322M,0.652,0.631,0.689,0.518,0.595,0.504,0.483,0.467,0.41,0.383,0.896,0.664,0.601,0.519,0.459,0.839,0.725,0.773,0.753,0.708
NCI-H358,0.47,0.303,0.186,0.185,0.127,0.393,0.341,0.19,0.174,0.14,0.587,0.438,0.399,0.332,0.28,0.824,0.776,0.752,0.833,0.791
NCI-H441,0.601,0.614,0.535,0.483,0.389,0.543,0.56,0.392,0.446,0.196,0.553,0.471,0.293,0.253,0.21,0.795,,0.898,0.91,0.881
NCI-H460,0.43,0.265,0.313,0.217,0.0898,0.557,0.332,0.244,0.141,0.0441,0.656,0.265,0.153,0.0822,0.0212,0.539,0.466,0.53,,0.391
NCI-H520,0.353,0.317,0.355,0.306,0.302,0.225,0.272,0.246,0.248,0.261,0.947,1.02,1.02,0.905,0.664,0.796,0.69,0.859,1.02,1.04
NCI-H596,0.664,0.594,0.589,0.516,0.463,0.531,0.62,0.407,0.487,0.249,1.04,0.851,0.769,0.774,0.76,0.545,0.413,0.529,0.49,0.493
NCI-H647,0.481,0.362,0.491,0.452,0.218,0.674,0.696,0.533,0.368,0.175,1.07,0.803,0.835,0.933,0.58,0.977,0.948,0.904,0.951,1.14
NCI-H650,0.444,0.434,0.568,0.649,0.542,0.645,0.765,0.619,0.714,0.567,1.08,0.93,0.861,0.787,0.456,1.07,1.12,,1.24,1.09
NCI-H661,0.718,0.704,0.633,0.637,0.564,0.686,0.595,0.51,0.522,0.389,0.537,0.499,0.567,0.392,0.403,0.889,0.591,0.423,0.402,0.591
NCI-H727,0.714,0.617,0.565,0.363,0.398,0.426,0.39,0.266,0.274,0.317,0.21,0.164,0.104,0.144,0.155,0.48,0.533,0.307,0.466,0.604
NCI-H838,0.703,0.675,0.622,0.674,0.587,0.301,0.298,0.227,0.281,0.236,0.912,0.867,,0.754,0.528,0.603,0.859,0.792,0.901,0.937
NCI-H1355,0.663,0.686,0.552,0.48,0.39,0.344,0.327,0.241,0.263,0.242,0.737,0.605,0.375,0.433,0.352,0.663,0.66,0.739,0.468,0.547
NCI-H1395,0.441,0.458,0.419,0.463,0.392,0.693,0.617,0.552,0.468,0.404,0.981,1.15,1.14,1.02,0.673,1.11,1.08,,1.3,0.928

Cell Line,relative viability (Trametinib + Olaparib; first compound 0.0025 µM),relative viability (Trametinib + Olaparib; first compound 0.007906 µM),relative viability (Trametinib + Olaparib; first compound 0.025 µM),relative viability (Trametinib + Olaparib; first compound 0.07906 µM),relative viability (Trametinib + Olaparib; first compound 0.25 µM),relative viability (Trametinib + OSI-027; first compound 0.0025 µM),relative viability (Trametinib + OSI-027; first compound 0.007906 µM),relative viability (Trametinib + OSI-027; first compound 0.025 µM),relative viability (Trametinib + OSI-027; first compound 0.07906 µM),relative viability (Trametinib + OSI-027; first compound 0.25 µM),relative viability (Trametinib + Linsitinib; first compound 0.0025 µM),relative viability (Trametinib + Linsitinib; first compound 0.007906 µM),relative viability (Trametinib + Linsitinib; first compound 0.025 µM),relative viability (Trametinib + Linsitinib; first compound 0.07906 µM),relative viability (Trametinib + Linsitinib; first compound 0.25 µM),relative viability ([1]; first compound 0.02 µM),relative viability ([1]; first compound 0.06325 µM),relative viability ([1]; first compound 0.2 µM),relative viability ([1]; first compound 0.6325 µM),relative viability ([1]; first compound 2 µM)
NCI-H1437,0.601,0.518,0.446,0.422,0.443,0.565,0.518,0.262,0.3,0.295,0.996,0.412,0.294,0.209,0.176,0.877,0.897,1.15,1.1,1.16
NCI-H1651,0.197,0.178,0.182,0.179,0.161,0.54,0.702,0.443,0.603,0.469,0.969,0.763,0.888,0.835,0.659,0.916,0.947,1.06,0.998,0.921
NCI-H1666,0.735,0.699,0.706,0.755,0.726,0.765,0.811,0.632,0.675,0.552,0.56,0.524,0.426,0.571,0.388,0.94,0.814,0.805,0.915,0.616
NCI-H1734,0.632,0.578,,0.59,0.431,0.591,0.517,0.404,0.492,0.278,0.845,0.739,,0.788,0.613,0.706,0.663,,0.675,0.662
NCI-H1755,0.849,0.826,0.804,0.807,0.742,0.668,0.673,0.559,0.707,0.664,0.847,0.82,0.764,0.847,0.801,0.872,0.922,0.944,0.836,0.858
NCI-H1792,0.479,0.415,0.348,0.186,0.244,0.565,0.62,0.745,0.618,0.51,0.489,0.39,0.363,0.234,0.164,0.536,0.723,0.608,,0.581
NCI-H1793,0.529,0.461,0.361,0.29,0.211,0.245,0.236,0.204,0.199,0.199,0.806,0.523,0.309,0.302,0.296,0.979,1.02,0.654,0.668,0.675
NCI-H1915,0.266,0.21,0.198,0.168,0.144,0.538,0.314,0.293,0.21,0.159,1.14,1.05,0.671,0.674,0.278,1.03,1.1,1.08,1.18,1.04
NCI-H1944,0.39,0.343,0.341,0.288,0.236,0.359,0.309,0.318,0.279,0.23,1.08,0.79,0.643,0.606,0.428,0.721,0.789,,0.833,0.748
NCI-H1975,0.816,0.633,0.566,0.376,0.322,0.643,0.422,0.402,0.299,0.196,0.93,0.897,0.603,0.384,0.38,0.603,0.718,0.536,0.625,0.498
NCI-H1993,0.961,0.834,0.789,0.542,0.537,0.545,0.606,0.624,0.657,0.699,0.774,0.752,0.719,0.723,0.745,0.631,0.653,0.678,0.736,0.698
NCI-H2009,0.693,0.768,0.508,0.338,0.308,0.505,0.405,0.229,0.226,0.247,0.916,0.717,0.483,0.472,0.334,1.2,1.14,1.22,1.24,1.05
NCI-H2023,0.492,0.448,0.419,0.447,0.294,0.344,0.297,0.229,0.311,0.188,0.549,0.47,0.45,0.424,0.217,0.649,0.594,0.542,0.516,0.53
NCI-H2085,0.766,0.659,0.558,0.638,0.615,0.469,0.352,0.281,0.329,0.298,0.812,0.688,0.607,0.728,0.737,0.967,0.849,1.01,0.852,0.949
NCI-H2087,0.463,0.379,0.249,0.123,0.18,0.323,0.275,0.139,0.137,0.101,0.718,0.416,0.377,0.311,0.315,1.16,1.21,1.17,1.05,1.22
NCI-H2126,0.801,0.822,0.742,0.753,0.615,0.671,0.506,0.375,0.535,0.488,0.617,0.613,0.422,0.546,0.454,0.794,0.775,0.741,0.716,0.6
